Reference: patent US5710150A, “Benzazepine derivative, pharmaceutical composition thereof, and intermediate thereof” (Yamanouchi Pharmaceutical Co., Ltd., priority 1993, dated 1998)
Where a name gives a salt, the structure may show the parent alone.

How the values were obtained:
[1] = biological target: T1, arginine vasopressin V1 receptor (Rattus norvegicus, UniProt P30560); test: V1 receptor binding assay ([3H]-Arg-vasopressin, rat liver membrane); settings: for antagonism on V1 receptor (in words): compared with OPC-31260 and OPC-21268; for Ki: rat liver membrane, [3H]-Arg-vasopressin 2 nM, 30° C., 30 minutes, pH 8.0, read-out: Binding activity on arginine vasopressin V1 receptor (pKi) (converted); for V1 selectivity (in words): V1 versus V2 receptor binding; for V1 receptor antagonism compared with OPC-21268 (in words): versus OPC-21268
T1 construct: A rat liver membrane sample was prepared; from tissue; host or cells: rat liver membranes
Experimental: (1) V1 receptor binding assay
A rat liver membrane sample was prepared in accordance with the method of Nakamura et al. (J. Biol. Chem., 258, 9283 (1983)), and [^3 H]-Arg-vasopressin (2 nM, specific activity=75.8 Ci/mmol), 70 μg of the membrane sample and each drug to be tested (10^-8 to 10^-4 M) were incubated at 30° C. for 30 minutes in 250 μl of 100 mM Tris-HCl buffer (pH=8.0) containing 5 mM of magnesium chloride, 1 mM of ethylenediaminetetraacetic acid (EDTA) and 0.1% of bovine serum albumin (BSA). Thereafter, the incubation solution was sucked off using a cell harvester and free ligand and excess buffer were removed by passing the reaction mixture through a glass filter (GF/B), thereby trapping receptor-bound labeled ligand on the glass filter. The glass filter was taken out, thoroughly dried and then mixed with a liquid scintillation cocktail, and the amount of the membrane-bound [^3 H]-vasopressin was measured using a liquid scintillation counter to calculate the inhibition ratio by the following formula. [formula] C1 : amount of [^3 H]-vasopressin bound to the membrane in the coexistence of known amount of each drug to be tested and [^3 H]-vasopressin
C0 : amount of [^3 H]-vasopressin bound to the membrane when the drug to be tested was not added
B1 : amount of [^3 H]-vasopressin bound to the membrane in the presence of excess vasopressin (10^-6 M)
[formula] [L]: concentration of radioactive ligand KD: dissociation constant calculated from Scatchard plot
Negative logarithm of the thus calculated Ki value was used as pKi value.

[2] = biological target: arginine vasopressin V2 receptor (Oryctolagus cuniculus, UniProt G1TA00); test: V2 receptor binding assay ([3H]-Arg-vasopressin, rabbit renal medulla membrane); settings: for antagonism on V2 receptor (in words): compared with OPC-31260 and OPC-21268; for Binding activity on arginine vasopressin V2 receptor (pKi): rabbit renal medulla membrane, [3H]-Arg-vasopressin 2 nM
V1 = V1 antagonism in conscious rats (oral administration), AVP-induced diastolic blood pressure increase; assay type: in vivo, male Wister rats; settings: 1 mg/kg oral, 30 minutes to 6 hours after administration, AVP 30 mU/kg i.v.
[3] = Water diuresis action in conscious rats (oral administration); assay type: in vivo, male Wister rats; settings: 3 mg/kg oral
Experimental: Each compound to be tested was suspended in 0.5% methylcellulose solution and orally administered in a dose of 3 mg/kg to male Wister rats (body weight, 270 to 300 g) which have been subjected to fasting with no water for 16 to 20 hours. Using a metabolic cage, urine samples were collected just after the administration of each test sample until 4 hours thereafter to measure the amount of urine.

Chain of arginine vasopressin V2 receptor (G1TA00 78-446): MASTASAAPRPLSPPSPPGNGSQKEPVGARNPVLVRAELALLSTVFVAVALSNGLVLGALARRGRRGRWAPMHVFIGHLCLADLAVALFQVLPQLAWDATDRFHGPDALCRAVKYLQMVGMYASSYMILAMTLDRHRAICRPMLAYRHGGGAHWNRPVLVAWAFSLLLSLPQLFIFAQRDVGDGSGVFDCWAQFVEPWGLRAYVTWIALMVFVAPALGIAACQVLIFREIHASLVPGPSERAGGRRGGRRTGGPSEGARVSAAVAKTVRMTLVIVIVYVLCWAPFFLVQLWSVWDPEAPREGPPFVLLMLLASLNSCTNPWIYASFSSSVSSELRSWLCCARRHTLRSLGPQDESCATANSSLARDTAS
T1 sequence (P30560 whole entry): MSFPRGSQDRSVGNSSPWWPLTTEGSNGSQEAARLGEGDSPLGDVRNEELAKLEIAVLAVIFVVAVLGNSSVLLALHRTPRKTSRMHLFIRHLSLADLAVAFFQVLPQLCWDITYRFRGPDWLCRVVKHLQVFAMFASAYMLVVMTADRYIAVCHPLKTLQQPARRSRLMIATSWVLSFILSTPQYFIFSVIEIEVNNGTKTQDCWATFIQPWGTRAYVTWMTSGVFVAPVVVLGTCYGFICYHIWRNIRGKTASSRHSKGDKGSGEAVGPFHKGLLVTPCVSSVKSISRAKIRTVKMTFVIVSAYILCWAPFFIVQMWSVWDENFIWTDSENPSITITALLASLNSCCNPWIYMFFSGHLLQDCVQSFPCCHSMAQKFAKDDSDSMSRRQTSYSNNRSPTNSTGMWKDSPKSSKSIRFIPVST

Structure (SMILES)	antagonism on V1 receptor (in words) [1]	Ki [1]	antagonism on V2 receptor (in words) [2]	Binding activity on arginine vasopressin V2 receptor (pKi) [2]	Pressure increment by AVP (before compound = 100%) (V1)	amount of urine compared with solvent-administered group, 2 to 4 hours (in words) ([3]; 2 hours to 4 hours after administration)	amount of urine relative to solvent-administered group, 0 to 2 hours ([3]; just after administration to 2 hours later)	V1 selectivity (in words) [1]	V1 receptor antagonism compared with OPC-21268 (in words) [1]
CN1CCCN(C(=O)/C=C2/c3ccccc3N(C(=O)c3ccc(NC(=O)c4ccccc4-c4ccccc4)cc3)CCC2(F)F)CC1.Cl [Example 24, (Z)-4'-[[4,4-difluoro-5-[[(4-methylhexahydro-1,4-diazepin-1-yl)carbonyl]methylene]-2,3,4,5-tetrahydro-1H-1-benzazepin-1-yl]carbonyl]-2-phenylbenzanilide hydrochloride]	excellent antagonisms on both V1 and V2 receptors	0.0316 nM	excellent antagonisms on both V1 and V2 receptors	9.26	≤ 50%				
CN(C)C1CCN(C(=O)/C=C2/c3ccccc3N(C(=O)c3ccc(NC(=O)c4ccccc4-c4ccccc4)cc3)CCC2(F)F)CC1.Cl [Example 13, (Z)-4'-[[4,4-difluoro-5-[[(4-dimethylaminopiperidino)carbonyl]methylene]-2,3,4,5-tetrahydro-1H-1-benzazepin-1-yl]carbonyl]-2-phenylbenzanilide hydrochloride]	excellent antagonisms on both V1 and V2 receptors	0.0794 nM	excellent antagonisms on both V1 and V2 receptors	9.58	≤ 50%				
Cc1ccccc1C(=O)Nc1ccc(C(=O)N2CCCC(N(C)C)c3ccccc32)cc1 (centres unmarked) [Comparative compound (1), OPC-31260]						almost the same as that in the solvent-administered group	11 times		
CN1CCN(C(=O)/C=C2/c3ccccc3N(C(=O)c3ccc(NC(=O)c4ccccc4-c4ccccc4)cc3)CCC2(F)F)CC1.Cl [Example 11, (Z)-4'-[[4,4-difluoro-5-(4-methyl-1-piperazinyl)carbonylmethylene-2,3,4,5-tetrahydro-1H-1-benzazepin-1-yl]carbonyl]-2-phenylbenzanilide hydrochloride]	excellent antagonisms on both V1 and V2 receptors	1.29 nM	excellent antagonisms on both V1 and V2 receptors	9.06	≤ 50%				
CCc1nccn1-c1ccccc1C(=O)Nc1ccc(C(=O)N2CCC(F)(F)/C(=C\C(=O)NC3CC3)c3ccccc32)cc1 [Example 105, (Z)-4'-[[5-[(N-cyclopropylcarbamoyl)methylene]-4,4-difluoro-2,3,4,5-tetrahydro-1H-1-benzazepin-1-yl]carbonyl]-2-(2-ethyl-1H-imidazol-1-yl) benzanilide]		0.339 nM		6.81				excellent in V1 selectivity	markedly stronger V1 receptor antagonism than that of OPC-21268
CN(C)CCN(C)C(=O)/C=C1/c2ccccc2N(C(=O)c2ccc(NC(=O)c3ccccc3-c3ccccc3)cc2)CCC1(F)F [Example 15, (Z)-4'-[4,4-difluoro-5-[[N-(2-dimethylaminoethyl)-N-methylcarbonylmethylene]-2,3,4,5-tetrahydro-1H-1-benzazepin-1-yl]carbonyl]-2-phenylbenzanilide hydrochloride]	excellent antagonisms on both V1 and V2 receptors	0.162 nM	excellent antagonisms on both V1 and V2 receptors	9.13					
CN(C)C1CCN(C(=O)/C=C2/c3ccccc3N(C(=O)c3ccc(NC(=O)c4cccc5ccccc45)cc3)CCC2(F)F)CC1 [Example 109, (Z)-N-[4'-[[4,4-difluoro-5-[[(4-dimethylaminopiperidino)carbonyl]methylene]-2,3,4,5-tetrahydro-1H-1-benzazepin-1-yl]carbonyl]phenylnaphthalene-1-carboxyamide hydrochloride]		3.98 nM		8.06					
CN(C)C(=O)/C=C1/c2ccccc2N(C(=O)c2ccc(NC(=O)c3ccccc3-c3ccccc3)cc2)CCC1(F)F [Example 129, (Z)-4'-[[5-(N,N-dimethylcarbamoylmethylene)-4,4-difluoro-2,3,4,5-tetrahydro1H-1-benzazepin-1-yl]carbonyl]-2-phenylbenzanilide]		0.479 nM		8.24					
CN(C)CC/C=C1\c2ccccc2N(C(=O)c2ccc(NC(=O)c3ccccc3-c3ccccc3)cc2)CCC1(F)F.Cl [Example 82, (E)-4'-[[4,4-difluoro-5-(3-dimethylaminopropylidene)-2,3,4,5-tetrahydro-1H-1-benzazepin-1-yl]carbonyl]-2-phenylbenzanilide hydrochloride]		2.63 nM		8.13					
CCc1nccn1-c1ccccc1C(=O)Nc1ccc(C(=O)N2CCC(F)(F)/C(=C\C(=O)NC)c3ccccc32)cc1 [Example 104, (Z)-2-(2-ethyl-1H-imidazol-1-yl)-4'-[[4,4-difluoro-5-[(N-methylcarbamoyl)methylene]-2,3,4,5-tetrahydro-1H-1-benzazepin-1-yl]carbonyl]benzanilide]		0.977 nM		6.68				excellent in V1 selectivity	markedly stronger V1 receptor antagonism than that of OPC-21268
COCCNC(=O)/C=C1/c2ccccc2N(C(=O)c2ccc(NC(=O)c3ccccc3-c3ccccc3)cc2)CCC1(F)F [Example 135, (Z)-4'-[[4,4-difluoro-5-[N-(2-methoxyethyl)carbamoylmethylene]-2,3,4,5-tetrahydro-1H-1-benzazepin-1-yl]carbonyl]-2-phenylbenzanilide]		0.195 nM		8.11					
CCc1nccn1-c1ccccc1C(=O)Nc1ccc(C(=O)N2CCC(F)(F)/C(=C\C(=O)OC)c3ccccc32)cc1 [Example 42, methyl (Z)-[1-[4-[2-(2-ethyl-1H-imidazol-1yl)benzoyl]amino]benzoyl-4,4-difluoro-2,3,4,5-tetrahydro-1H-1-benzazepin-5-ylidene]acetate]		1.15 nM		6.33				excellent in V1 selectivity	markedly stronger V1 receptor antagonism than that of OPC-21268
